# Test results published in PubChem BioAssay (NCI).
#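 Each compound was tested at five concentrations against cells in 96-well plates for 48 hours. The concentration for full growth arrest is given as TGI.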
# Legend:
# Assay in all cases: inhibition of tumour cell growth, NCI panel, 48 h
# [1] = test system: 786-0 renal
# [2] = test system: A498 renal
# [3] = test system: A549 NSCLC
# [4] = test system: ACHN renal
# [5] = test system: BT-549 breast
# [6] = test system: CAKI-1 renal
# [7] = test system: CCRF-CEM leukemia
# [8] = test system: COLO 205 colon
# [9] = test system: DU-145 prostate
# [10] = test system: EKVX NSCLC
# [11] = test system: HCT-116 colon
# [12] = test system: HCT-15 colon
# [13] = test system: HL-60(TB) leukemia
# [14] = test system: HOP-62 NSCLC
# [15] = test system: HOP-92 NSCLC
# [16] = test system: HS 578T breast
# [17] = test system: HT29 colon
# [18] = test system: IGROV1 ovarian
# [19] = test system: K-562 leukemia
# [20] = test system: KM12 colon
# [21] = test system: LOX IMVI melanoma
# [22] = test system: M14 melanoma
# [23] = test system: MALME-3M melanoma
# [24] = test system: MDA-MB-231 breast
# [25] = test system: MDA-MB-435
# [26] = test system: MDA-N
# [27] = test system: MOLT-4 leukemia
# [28] = test system: NCI-H226 lung
# [29] = test system: NCI-H23 lung
# [30] = test system: NCI-H460 lung
# [31] = test system: NCI-H522 lung
# [32] = test system: NCI/ADR-RES ovarian
# [33] = test system: OVCAR-3 ovarian
# [34] = test system: OVCAR-4 ovarian
# [35] = test system: OVCAR-5 ovarian
# [36] = test system: OVCAR-8 ovarian
# [37] = test system: PC-3 prostate
# [38] = test system: RPMI-8226 leukemia
# [39] = test system: RXF 393 renal
# [40] = test system: SF-268 CNS
# [41] = test system: SF-295 CNS
# [42] = test system: SF-539 CNS
# [43] = test system: SK-MEL-2 melanoma
# [44] = test system: SK-MEL-28 melanoma
# [45] = test system: SK-MEL-5 melanoma
# [46] = test system: SK-OV-3 ovarian
# [47] = test system: SN12C renal
# [48] = test system: SNB-19 CNS
# [49] = test system: SNB-75 CNS
# [50] = test system: SR leukemia
# [51] = test system: SW-620 colon
# [52] = test system: TK-10 renal
# [53] = test system: U251 CNS
# [54] = test system: UACC-257 melanoma
# [55] = test system: UACC-62 melanoma
# [56] = test system: UO-31 renal
# [57] = test system: MCF7 breast
# [58] = test system: HCC-2998 colon
smiles,measurement,setting,value
CC(C)=CCNc1ncnc2c1c(C#N)cn2C1OC(CO)C(O)C1O (centres undefined),TGI,[1],> 100 µM
same,TGI,[2],> 72.6 µM
same,TGI,[3],> 100 µM
same,TGI,[4],> 100 µM
same,TGI,[5],> 100 µM
same,TGI,[6],> 100 µM
same,TGI,[7],81.5 µM
same,TGI,[8],6.76 µM
same,TGI,[9],> 100 µM
same,TGI,[10],> 100 µM
same,TGI,[11],> 100 µM
same,TGI,[12],> 100 µM
same,TGI,[13],67.9 µM
same,TGI,[14],> 100 µM
same,TGI,[15],> 100 µM
same,TGI,[16],> 100 µM
same,TGI,[17],> 100 µM
same,TGI,[18],> 100 µM
same,TGI,[19],> 100 µM
same,TGI,[20],> 100 µM
same,TGI,[21],> 100 µM
same,TGI,[22],> 100 µM
same,TGI,[23],> 100 µM
same,TGI,[24],> 100 µM
same,TGI,[25],> 100 µM
same,TGI,[26],> 100 µM
same,TGI,[27],> 100 µM
same,TGI,[28],> 100 µM
same,TGI,[29],> 100 µM
same,TGI,[30],33.6 µM
same,TGI,[31],> 50.3 µM
same,TGI,[32],> 100 µM
same,TGI,[33],77.1 µM
same,TGI,[34],23.3 µM
same,TGI,[35],> 100 µM
same,TGI,[36],> 100 µM
same,TGI,[37],> 100 µM
same,TGI,[38],> 72.9 µM
same,TGI,[39],> 100 µM
same,TGI,[40],> 100 µM
same,TGI,[41],> 100 µM
same,TGI,[42],> 100 µM
same,TGI,[43],> 100 µM
same,TGI,[44],> 100 µM
same,TGI,[45],> 100 µM
same,TGI,[46],> 100 µM
same,TGI,[47],> 100 µM
same,TGI,[48],> 100 µM
same,TGI,[49],> 100 µM
same,TGI,[50],> 100 µM
same,TGI,[51],> 100 µM
same,TGI,[52],24.7 µM
same,TGI,[53],> 100 µM
same,TGI,[54],> 100 µM
same,TGI,[55],> 100 µM
same,TGI,[56],> 100 µM
O=c1cc(-c2ccccc2)nc(-n2[nH]c3c(c2=O)CCCC3)[nH]1,TGI,[1],46.3 µM
same,TGI,[2],> 100 µM
same,TGI,[3],> 100 µM
same,TGI,[4],80.1 µM
same,TGI,[5],> 100 µM
same,TGI,[6],> 100 µM
same,TGI,[7],35.8 µM
same,TGI,[8],40.8 µM
same,TGI,[9],3.97 µM
same,TGI,[10],> 100 µM
same,TGI,[11],18.6 µM
same,TGI,[12],> 100 µM
same,TGI,[13],> 100 µM
same,TGI,[15],> 100 µM
same,TGI,[16],> 100 µM
same,TGI,[17],33.8 µM
same,TGI,[18],> 100 µM
same,TGI,[19],> 100 µM
same,TGI,[20],> 100 µM
same,TGI,[22],26.8 µM
same,TGI,[23],> 100 µM
same,TGI,[57],> 100 µM
same,TGI,[24],> 100 µM
same,TGI,[25],89.9 µM
same,TGI,[26],> 100 µM
same,TGI,[27],> 100 µM
same,TGI,[28],> 100 µM
same,TGI,[29],> 100 µM
same,TGI,[30],> 100 µM
same,TGI,[31],69.6 µM
same,TGI,[34],61.9 µM
same,TGI,[35],> 100 µM
same,TGI,[37],> 100 µM
same,TGI,[38],65.7 µM
same,TGI,[39],25.5 µM
same,TGI,[40],> 100 µM
same,TGI,[41],> 100 µM
same,TGI,[42],44.6 µM
same,TGI,[43],29.4 µM
same,TGI,[44],28.9 µM
same,TGI,[45],> 100 µM
same,TGI,[46],> 100 µM
same,TGI,[47],> 100 µM
same,TGI,[48],> 100 µM
same,TGI,[49],14.2 µM
same,TGI,[50],> 100 µM
same,TGI,[51],> 100 µM
same,TGI,[52],> 100 µM
same,TGI,[53],> 100 µM
same,TGI,[54],> 100 µM
same,TGI,[55],15.6 µM
same,TGI,[56],> 100 µM
CCOC(=O)C1OC(=O)CC1C1(C(=O)OCC)C=CC(=O)O1 (centres undefined),TGI,[1],> 100 µM
same,TGI,[3],> 100 µM
same,TGI,[4],> 100 µM
same,TGI,[5],> 100 µM
same,TGI,[6],> 100 µM
same,TGI,[7],> 100 µM
same,TGI,[8],> 100 µM
same,TGI,[9],> 100 µM
same,TGI,[10],> 100 µM
same,TGI,[58],> 100 µM
same,TGI,[11],> 100 µM
same,TGI,[12],> 100 µM
same,TGI,[13],> 100 µM
same,TGI,[14],> 100 µM
same,TGI,[15],> 100 µM
same,TGI,[17],> 100 µM
same,TGI,[18],> 100 µM
same,TGI,[19],> 100 µM
same,TGI,[20],> 100 µM
same,TGI,[21],93.3 µM
same,TGI,[22],> 100 µM
same,TGI,[23],> 100 µM
same,TGI,[57],> 100 µM
same,TGI,[26],> 100 µM
same,TGI,[27],> 100 µM
same,TGI,[28],> 100 µM
same,TGI,[29],> 100 µM
same,TGI,[30],58.1 µM
same,TGI,[31],> 100 µM
same,TGI,[32],> 100 µM
same,TGI,[33],> 100 µM
same,TGI,[34],> 100 µM
same,TGI,[35],> 100 µM
same,TGI,[36],> 100 µM
same,TGI,[37],> 100 µM
same,TGI,[38],> 100 µM
same,TGI,[39],> 100 µM
same,TGI,[40],> 100 µM
same,TGI,[41],> 100 µM
same,TGI,[42],> 100 µM
same,TGI,[43],> 100 µM
same,TGI,[44],> 100 µM
same,TGI,[45],> 100 µM
same,TGI,[46],> 100 µM
same,TGI,[47],> 100 µM
same,TGI,[48],> 100 µM
same,TGI,[49],> 100 µM
same,TGI,[50],> 100 µM
same,TGI,[51],> 100 µM
same,TGI,[52],> 100 µM
same,TGI,[53],> 100 µM
same,TGI,[54],> 100 µM
same,TGI,[55],> 100 µM
same,TGI,[56],> 100 µM
CC1CC/C(=C\c2ccc(F)cc2)C2=C1C(c1ccc(F)cc1)n1c(s/c(=C/c3cccc(Br)c3)c1=O)=N2 (centres undefined),TGI,[1],> 100 µM
same,TGI,[2],> 100 µM
same,TGI,[3],> 100 µM
same,TGI,[4],> 100 µM
same,TGI,[6],> 100 µM
same,TGI,[7],> 100 µM
same,TGI,[9],> 100 µM
same,TGI,[10],> 100 µM
same,TGI,[11],> 100 µM
same,TGI,[12],> 100 µM
same,TGI,[13],> 100 µM
same,TGI,[14],> 100 µM
same,TGI,[15],> 100 µM
same,TGI,[16],> 100 µM
same,TGI,[17],> 100 µM
same,TGI,[18],> 100 µM
same,TGI,[19],> 100 µM
same,TGI,[20],> 100 µM
same,TGI,[21],> 100 µM
same,TGI,[22],> 100 µM
same,TGI,[57],> 100 µM
same,TGI,[24],> 100 µM
same,TGI,[25],> 100 µM
same,TGI,[26],> 100 µM
same,TGI,[27],> 100 µM
same,TGI,[35],> 100 µM
same,TGI,[36],> 100 µM
same,TGI,[37],> 100 µM
same,TGI,[38],> 100 µM
same,TGI,[39],> 100 µM
same,TGI,[40],> 100 µM
same,TGI,[43],> 100 µM
same,TGI,[44],> 100 µM
same,TGI,[45],> 100 µM
same,TGI,[46],> 100 µM
same,TGI,[47],> 100 µM
same,TGI,[48],> 100 µM
same,TGI,[49],> 100 µM
same,TGI,[50],> 100 µM
same,TGI,[51],> 100 µM
same,TGI,[52],> 100 µM
same,TGI,[53],> 100 µM
same,TGI,[54],> 100 µM
same,TGI,[55],> 100 µM
CC1CCC2C(C)(C)CC3(C)CCC1C23O (centres undefined),TGI,[1],29 µM
same,TGI,[2],36.7 µM
same,TGI,[3],37 µM
same,TGI,[4],29.7 µM
same,TGI,[5],32 µM
same,TGI,[6],27.2 µM
same,TGI,[7],21.7 µM
same,TGI,[8],33.2 µM
same,TGI,[10],28.3 µM
same,TGI,[11],27.9 µM
same,TGI,[12],30.6 µM
same,TGI,[13],5.57 µM
same,TGI,[14],30.6 µM
same,TGI,[15],26.4 µM
same,TGI,[16],30.3 µM
same,TGI,[17],29.9 µM
same,TGI,[18],29.4 µM
same,TGI,[19],40.9 µM
same,TGI,[20],29.1 µM
same,TGI,[21],28.9 µM
same,TGI,[22],29.4 µM
same,TGI,[23],26.2 µM
same,TGI,[57],29.3 µM
same,TGI,[24],29.7 µM
same,TGI,[25],30.5 µM
same,TGI,[26],25.3 µM
same,TGI,[27],28 µM
same,TGI,[28],29.9 µM
same,TGI,[29],29.6 µM
same,TGI,[30],30.7 µM
same,TGI,[32],28 µM
same,TGI,[33],29.9 µM
same,TGI,[34],49.6 µM
same,TGI,[35],34.9 µM
same,TGI,[36],34.4 µM
same,TGI,[37],25.7 µM
same,TGI,[39],30.8 µM
same,TGI,[41],25.8 µM
same,TGI,[42],31.6 µM
same,TGI,[43],27.3 µM
same,TGI,[44],29.8 µM
same,TGI,[45],27.7 µM
same,TGI,[46],89.2 µM
same,TGI,[47],32.6 µM
same,TGI,[48],> 100 µM
same,TGI,[49],48.4 µM
same,TGI,[50],29.1 µM
same,TGI,[51],30.2 µM
same,TGI,[52],31.6 µM
same,TGI,[53],29.5 µM
same,TGI,[54],29.7 µM
same,TGI,[55],28.2 µM
same,TGI,[56],30 µM
